Test results taken from patent US20230203004A1, “RSV INHIBITING 3-SUBSTITUTED QUINOLINE AND CINNOLINE DERIVATIVES” (Janssen Sciences Ireland Unlimited Company, priority 2020, published 2023).
Where two headings read alike, the source gives them in different places.

Columns and labels:
rgRSV224 virus = assay: Antiviral activity: rgRSV224 (GFP) replication in HeLa cells; type: cell-based, respiratory syncytial virus (RSV)
In short: (§1)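 Over 3 days at 37 °C, compound titrations (4-fold steps, nine dilutions) were tested on HeLa cells infected with rgRSV224 (MOI = 1), inhibition of GFP signal giving EC50. In parallel plates, ATP content of HeLa cells after 3-day exposure defined CC50.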

[1] = Cytotoxicity in HeLa cells (ATP content, ATPlite kit); type: cell-based; conditions: human
In short: as §1

[2] = human respiratory syncytial virus, HeLa, 72 h, read-out: RSV HELA EC50, HeLa cells, rgRSV224 MOI = 1, GFP expression three days post-virus exposure, averaged data of several repeat experiments
[3] = read-out: RSV HELA EC50, HeLa cells, rgRSV224 MOI = 1, GFP expression three days post-virus exposure, averaged data of several repeat experiments

Structure (SMILES)	EC50 (rgRSV224 virus; [2]) [µM]	CC50 at 3 days ([1]; TOX HELA CC50) [µM]	EC50 (rgRSV224 virus; [3]) [µM]	EC50 (rgRSV224 virus; human respiratory syncytial virus, HeLa, comparison table 5.3, antiviral RSV assay of Example 5.1) [µM]	CC50 at 3 days ([1]; CC50) [µM]
COc1cc(C(=O)NC[C@](O)(c2cc(C(C)(C)O)c(F)c(-c3ccc(F)cc3)n2)C2CC2)cc2cc(C(F)F)cnc12 [compound 227, N-{(-)Cyclopropyl[5-Fluoro-6-(4-Fluorophenyl)-4-(2-Hydroxypropanyl)Pyridinyl]Hydroxyethyl}-3-(Difluoromethyl)-8-Methoxyquinoline-6-Carboxamide]	0.0011	15	–	–	–
COc1cc(C(=O)NCC(O)(c2cc(C(C)(C)O)c(F)c(-c3ccc(F)cc3)n2)C(F)F)cc2cc(C)nnc12 (single isomer, unassigned; (+)) [compound 249, (+)-N-{3,3-Difluoro-2-[5-Fluoro-6-(4-Fluorophenyl)-4-(2-Hydroxypropan-2-yl)Pyridin-2-yl]-2-Hydroxypropyl}-8-Methoxy-3-Methylcinnoline-6-Carboxamide]	–	35	> 1.25	–	–
COc1cc(C(=O)NC[C@](O)(c2nc(-c3ccc(F)cc3)c(F)c(C(C)(C)NS(C)(=O)=O)c2F)C(F)(F)F)cc2cc(C)nnc12 [compound 243, (-)-N-{2-[3,5-Difluoro-6-(4-Fluorophenyl)-4-{2-[(Methanesulfoyl)Amino]Propan-2-yl}Pyridin-2-yl]-3,3,3-Trifluoro-2-Hydroxypropyl}-8-Methoxy-3-Methylcinnoline-6-Carboxamide]	0.003	45	–	–	–
COc1cc(C(=O)NCC(O)(c2cc(C(C)(C)O)c(F)c(-c3ccc(F)cc3)n2)C(F)F)cc2cc(C)c(F)nc12 (single isomer, unassigned; (+)) [compound 213, (+)-N-{3,3-Difluoro-2-[5-Fluoro-6-(4-Fluorophenyl)-4-(2-Hydroxypropan-2-yl)Pyridin-2-yl]-2-Hydroxypropyl}-2-Fluoro-8-Methoxy-3-Methylquinoline-6-Carboxamide]	–	31	0.52	–	–
COc1cc(C(=O)NCC(O)(c2nc(-c3ccc(F)cc3)cc(C(C)(C)O)c2F)C(F)(F)F)cc2cc(C)nnc12 (racemic) [compound 279, (RS)Methoxy-3-Methyl-N-(3,3,3-Trifluoro-2-(3-Fluoro-6-(4-Fluorophenyl)-4-(2-Hydroxypropan-2-yl)Pyridin-2-yl)-2-Hydroxypropyl)Cinnoline-6-Carboxamide]	0.047	16	–	–	–
COc1cc(C(=O)NC[C@](O)(c2cc(C(C)(C)O)c(F)c(-c3ccc(F)cc3)n2)C(F)(F)F)cc2cc(C)c(F)nc12 [compound 273, (-)Fluoro-8-methoxy-3-methyl-n-(3,3,3-trifluoro(5-fluoro-6-(4-fluorophenyl)-4-(2-hydroxypropanyl)pyridinyl)hydroxypropyl)quinoline-6-carboxamide]	0.00381	13	–	–	–
Cc1cc2cc(C(=O)NC[C@](O)(c3cc(C(C)(C)O)c(F)c(-c4ccc(F)cc4)n3)C(F)(F)F)cc(OC(F)F)c2nn1 [compound 312, (-)(Difluoromethoxy)-3-Methyl-N-(3.3.3-Trifluoro-2-(5-Fluoro-6-(4-Fluorophenyl)-4-(2-Hydroxypropan-2-yl)Pyridin-2-yl)-2-Hydroxypropyl)Cinnoline-6-Carboxamide]	0.0028	13	–	–	–
COc1cc(C(=O)NC[C@](O)(c2cc(C(C)(C)O)c(Cl)c(-c3ccc(F)cc3)n2)C2CC2)cc2cc(C(F)F)cnc12 [compound 226, (-)-N-{2-[5-Chloro-6-(4-Fluorophenyl)-4-(2-Hydroxypropan-2-yl)Pyridin-2-yl]-2-Cyclopropyl-2-Hydroxyethyl}-3-(Difluoromethyl)-8-Methoxyquinoline-6-Carboxamide]	0.0024	14	–	–	–
COc1cc(C(=O)NC[C@](O)(c2cc(C(C)(C)O)c(F)c(-c3ccc(F)cc3)n2)C(F)(F)F)cc2cc(C)cnc12 [compound 322, (-)Methoxy-3-Methyl-N-(3,3,3-Trifluoro-2-(5-Fluoro-6-(4-Fluorophenyl)-4-(2-Hydroxypropan-2-yl)Pyridm-2-yl)-2-Hydroxypropyl)Qumolme-6-Carboxamide]	0.0045	15	–	–	–
COc1cc(C(=O)NCC(O)(c2cc(C(C)(C)O)c(F)c(-c3ccc(F)cc3)n2)[C@H]2CC2(F)F)cc2cc(C)nnc12 (stereo in doubt) [compound 319, N-((*R)-2,2-Difluorocyclopropyl)-2-(5-Fluoro-6-(4-Fluorophenyl)-4-Hydroxypropan-2-yl)Pyridin-2-yl)-2-Hydroxyethyl)-8-Methoxy-3-Methylcinnoline-6-Carboxamide]	0.0012	6.1	–	–	–
COc1cc(C(=O)NC[C@@](O)(c2cc(C(C)(C)O)c(F)c(-c3ccc(F)cc3)n2)C2C[C@@H]2F)cc2cc(C)nnc12 (single isomer, unassigned) [compound 301, N-((*R)(5-Fluoro-6-(4-Fluorophenyl)-4-(2-Hydroxypropanyl)Pyridinyl)((1*R,2*S)Fluorocyclopropyl)Hydroxyethyl)-8-Methoxy-3-Methylcinnoline-6-Carboxamide]	0.336	22	–	–	–
COc1cc(C(=O)NC[C@@](O)(c2cc(C(C)(C)O)cc(-c3ccc(F)cc3)n2)C(C)(C)F)cc2cc(C)nnc12 [compound 307]	0.04	43	–	–	–
COc1cc(C(=O)NC[C@](O)(c2nc(-c3ccc(F)cc3)cc(C(C)(C)O)c2F)C(F)(F)F)cc2cc(C)nnc12 [compound 281, (-)Methoxy-3-Methyl-N-(3,3,3-Trifluoro-2-(3-Fluoro-6-(4-Fluorophenyl)-4-(2-Hydroxypropan-2-yl)Pyridin-2-yl)-2-Hydroxypropyl)Cinnoline-6-Carboxarmide]	0.029	24	–	–	–
COc1cc(C(=O)NC[C@](O)(c2cc(C(C)(C)O)c(F)c(-c3ccc(F)cc3)n2)C2CC2)cc2cc(C)nnc12 [compound 252, (-)-N-{2-Cyclopropyl-2-[5-Fluoro-6-(4-Fluorophenyl)-4-(2-Hydroxypropan-2-yl)Pyridin-2-yl]-2-Hydroxyethyl}-8-Methoxy-3-Methylcinnoline-6-Carboxamide]	0.0003	43	–	0.0003	38
[2H]C([2H])(NC(=O)c1cc(OC)c2nnc(C)cc2c1)[C@@](O)(c1cc(C(C)(C)O)c(F)c(-c2ccc(F)cc2)n1)C1CC1 [compound 315]	0.047	27	–	–	–
COc1cc(C(=O)NC[C@](O)(c2cc(C(C)(C)O)c(F)c(-c3ccc(F)cc3)n2)C(C)C)cc2cc(C(F)F)nnc12 [compound 285, (S)(Difluoromethyl)-N-(2-(5-Fluoro-6-(4-Fluorophenyl)-4-(2-Hydroxypropan-2-yl)Pyridin-2-yl)-2-HydroxyMethylbutyl)-8-Methoxycinnoline-6-Carboxamide]	0.0065	16	–	–	–
COc1cc(C(=O)NC[C@](O)(c2nc(-c3ccc(F)cc3)c(Cl)c(C(C)(C)O)c2F)C(F)(F)F)cc2cc(C)cnc12 [compound 202]	0.0048	46	–	–	–
COc1cc(C(=O)NC[C@](O)(c2cc(C(C)(C)O)c(F)c(-c3ccc(Cl)cc3)n2)C2CC2)cc2cc(C)nnc12 [compound 278]	0.00065	29	–	–	–
COc1cc(C(=O)NCC(O)(c2cc(C(C)(C)O)c(F)c(-c3ccc(C4CC4)cc3)n2)C2CC2)cc2cc(C)nnc12 (single isomer, unassigned; (-)) [compound 254, (-)-N-{2-Cyclopropyl-2-[6-(4-Cyclopropylphenyl)-5-Fluoro-4-(2-Hydroxypropan-2-yl)Pyridin-2-yl]-2-Hydroxyethyl}-8-Methoxy-3-Methylcinnoline-6-Carboxamide]	0.0035	15	–	–	–
COc1cc(C(=O)NC[C@](O)(c2cc(C(C)(C)O)c(F)c(-c3ccc(F)c(F)c3)n2)C2CC2)cc2cc(C(F)F)nnc12 [compound 270, (-)-N-{2-Cyclopropyl-2-[6-(3,4-Difluorophenyl)-5-Fluoro-4-(2-Hydroxypropan-2-yl)Pyridin-2-yl]-2-Hydroxyethyl}-3-(Difluoromethyl)-8-Methoxycinnoline-6-Carboxamide]	0.00084	15	–	–	–
COc1cc(C(=O)NC[C@@](O)(c2nc(-c3ccc(F)cc3)c(F)c(C(C)(C)NS(C)(=O)=O)c2F)C(F)(F)F)cc2cc(C)nnc12 [compound 244, (+)-N-{2-[3,5-Difluoro-6-(4-Fluorophenyl)-4-{2-[(Methanesulfonyl)Amino]Propan-2-yl}Pyridin-2-yl]-3,3,3-Trifluoro-2-Hydroxypropyl}-8-Methoxy-3-Methylcinnoline-6-Carboxamide]	0.058	43	–	–	–
COc1cc(C(=O)NC[C@@](O)(c2cc(C(C)(C)O)c(F)c(-c3ccc(F)cc3)n2)C2(F)CC2)cc2cc(C)nnc12 [compound 297]	0.058	45	–	–	–
COc1cc(C(=O)NC[C@@](O)(c2cc(C(C)(C)O)c(F)c(-c3ccc(F)cc3)n2)C2CC2(C)C)cc2cc(C)nnc12 (single isomer, unassigned) [compound 295, N-((+)(2,2-dimethylcyclopropyl)(5-fluoro-6-(4-fluorophenyl)-4-(2-hydroxypropanyl)pyridinyl)hydroxyethyl)-8-methoxy-3-methylcinnoline-6-carboxamide]	0.18	12	–	–	–
COc1cc(C(=O)NC[C@](O)(c2nc(-c3ccc(F)cc3)c(F)c(C(C)(C)O)c2F)C(F)(F)F)cc2cc(C3CC3)cnc12 [compound 228, (-)Cyclopropyl-N-{2-[3,5-Difluoro-6-(4-Fluorophenyl)-4-(2-Hydroxypropan-2-yl)Pyridin-2-yl]-3,3,3-Trifluoro-2-Hydroxypropyl}-8-Methoxyquinoline-6-Carboxamide]	0.013	10	–	–	–
